Reference: patent US11998577B2, “Methods for increasing growth of beneficial bacteria in the gastrointestinal tract” (ABBOTT LABORATORIES, priority 2017, dated 2024)

What was measured:
genus Bifidobacterium = assay: Fecal fermentation, quantification of genus Bifidobacterium by real-time PCR; format: cell-based; settings: faecal slurry of formula-fed baby, 37° C., pH 5.5, anaerobic; 2′-FL at both daily (DD) and per intake (DI) doses; p<0.05 vs blend (DD) and blend (DI)
Procedure: (§1) Example 2: A series of experiments were carried out to determine the effects of providing 2′-FL, lutein, and RRR-alpha-tocopherol on bacterial growth. Fecal fermentations were carried out by using 3 ml fermentations in 10 ml fermentor (24 multi-well plate; μ-24 Bioreactor, Applikon Biotechnology). Fresh faecal sample came from a formula (without prebiotic or probiotic)-fed baby. Stools were vacuum stored in refrigerated conditions until the fermentation. Fresh feces were weighed and dissolved in Mc Bain and MacFarlane medium (1:5) to hydrate them. Three milliliters of the homogenized mixture (faecal slurry) were inoculated in each fermenter. In each case, prebiotic (2′-FL), RRR-alpha-tocopherol (vitamin E) and lutein were added at different dosage (Table 4). […] Anaerobiosis, temperature (37° C.) and pH levels (pH 5.5) were maintained during the assay and monitored throughout the study. […] For quantification, previous extracted DNA was used. Real-time PCR was used to quantify genera Bifidobacterium and Lactobacillus, and B. longum and L. fermentum species. In the case of genus Bifidobacterium and B. longum, quantification was performed with primers described by Matsuki et al.1. Lactobacillus group was quantified with primers described by Byun et al.2. Lactobacillus fermentum was quantified with the aid of primers designed by Matsuda et al.3 Nucleotide sequences of primers are listed in Table 5. […]

L. fermentum = assay: Fecal fermentation, quantification of L. fermentum species by real-time PCR; format: cell-based, Lactobacillus fermentum; settings: faecal slurry fermentation; detection limit 1.00·103CFU/g slurry
Procedure: as §1

B. longum = assay: Fecal fermentation, quantification of B. longum species by real-time PCR; format: cell-based, Bifidobacterium longum; settings: faecal slurry fermentation; 2′-FL at both daily (DD) and per intake (DI) doses; p<0.05 vs product (DD) and blend (DI)
Procedure: as §1

## C[C@@H]1O[C@@H](O[C@H]2[C@H](O[C@H]3[C@H](O)[C@@H](O)C(O)O[C@@H]3CO)O[C@H](CO)[C@H](O)[C@@H]2O)[C@@H](O)[C@H](O)[C@@H]1O (stereo partly drawn) [2′-FL, 2′-fucosyllactose]
Genus Bifidobacterium
  bifidobacteria numbers (real-time PCR, FIG. 1): significant higher bifidobacteria numbers
L. fermentum
  L. fermentum detection (real-time PCR, FIG. 4): reached detectable values
B. longum
  B. longum numbers (real-time PCR, FIG. 2): significant higher B. longum numbers
